Values joined by “and” are separate entries in the source; they are usually repeats but may differ in a detail not shown here. Equal entries are not always repeated. Peptide text beside a SMILES is read from it.
Experiments:
[1] = molecular target: ComR WT (Streptococcus thermophilus, UniProt A0A1L1QK15); experiment: biochemical; format: binding, Streptococcus thermophilus LMD-9; conditions: KD
Experimental: Purification of ComR-StreptagII proteins (StreptagII at C-terminus) was performed as described previously with some modifications. E. coli strain BL21 Gold cultures were grown in 2YT medium at 15°C until an OD600 of ~ 0.5, cooled down on ice for 10 minutes, and induced by addition of 0.2% of L-arabinose (wt vol^-1) before continuous shaking at 28°C for 4 h. Cells were then harvested by centrifugation (5,000 × g during 15 min at 8°C). The pellets were resuspended in cold buffer W (100 mM Tris-HCl pH 8.0, 150 mM NaCl, 1 mM EDTA) supplemented with 0.5 mg ml^−1 of lysozyme, incubated for 30 min at 4°C, and sonicated at 4°C. […] For structural and biophysical analyses, the purification protocol was completed by a size exclusion chromatography step using a HiLoad 16/600 Superdex 75 prep grade column (GE Healthcare) equilibrated in buffer W plus 10% (vol vol^-1) glycerol. Purified proteins were aliquoted, flash frozen and conserved at -20°C. Their purity was visualized by SDS-PAGE and their concentrations were measured using a Nanodrop apparatus (protein A280 method) (ThermoFisher Scientific).
Isothermal titration calorimetry (ITC) experiments were performed at 20°C in 20 mM Tris-HCl pH 8.0, 150 mM NaCl, 1 mM EDTA with an ITC200 calorimeter (Microcal). The protein concentration in the microcalorimeter cell and the peptide concentration in the syringe were set at 50 μM and 500 μM, respectively. A first injection of 0.4 μl, which was not taken into account for the fitting, was followed by 20 injections of 2 μl at intervals of 180 s. The peptide concentration used in the calculations is based on the weight of the lyophilized peptide and is therefore inaccurate because there may be a significant quantity of bound water, and salts or counter ions. However, the calculated number of binding sites, n, is always close to 1, in agreement with the 1:1 ratio observed in the crystal structure of the ternary complex. […] The data were analyzed using the MicroCal Origin software provided by the manufacturer. […] It was therefore not possible to distinguish the two events and the fitting was performed with the one-binding-site model. The calculated KD are therefore apparent values.

[2] = molecular target: ComR K100A (Streptococcus thermophilus, UniProt A0A1L1QK15, K100A); experiment: ITC, XIP binding on ComR K100A; parameters: species or system Streptococcus thermophilus LMD-9
Experimental: (§1) Purification of ComR-StreptagII proteins (StreptagII at C-terminus) was performed as described previously with some modifications. E. coli strain BL21 Gold cultures were grown in 2YT medium at 15°C until an OD600 of ~ 0.5, cooled down on ice for 10 minutes, and induced by addition of 0.2% of L-arabinose (wt vol^-1) before continuous shaking at 28°C for 4 h. Cells were then harvested by centrifugation (5,000 × g during 15 min at 8°C). The pellets were resuspended in cold buffer W (100 mM Tris-HCl pH 8.0, 150 mM NaCl, 1 mM EDTA) supplemented with 0.5 mg ml^−1 of lysozyme, incubated for 30 min at 4°C, and sonicated at 4°C. […] Their purity was visualized by SDS-PAGE and their concentrations were measured using a Nanodrop apparatus (protein A280 method) (ThermoFisher Scientific).
(§2) Isothermal titration calorimetry (ITC) experiments were performed at 20°C in 20 mM Tris-HCl pH 8.0, 150 mM NaCl, 1 mM EDTA with an ITC200 calorimeter (Microcal). […] The peptide concentration used in the calculations is based on the weight of the lyophilized peptide and is therefore inaccurate because there may be a significant quantity of bound water, and salts or counter ions. However, the calculated number of binding sites, n, is always close to 1, in agreement with the 1:1 ratio observed in the crystal structure of the ternary complex. […] The calculated KD are therefore apparent values.

[3] = molecular target: ComR T90A (Streptococcus thermophilus, UniProt A0A1L1QK15, T90A); experiment: ITC, XIP binding on ComR T90A; parameters: species or system Streptococcus thermophilus LMD-9
Experimental: as §1, §2

[4] = molecular target: ComR Y91A (Streptococcus thermophilus, UniProt A0A1L1QK15, Y91A); experiment: ITC, XIP binding on ComR Y91A; parameters: species or system Streptococcus thermophilus LMD-9
Experimental: as §1, §2

[5] = molecular target: ComR R92A (Streptococcus thermophilus, UniProt A0A1L1QK15, R92A); experiment: ITC, XIP binding on ComR R92A; parameters: species or system Streptococcus thermophilus LMD-9
Experimental: as §1, §2

[6] = molecular target: ComR F171A/Y174A (Streptococcus thermophilus, UniProt A0A1L1QK15, F171A/Y174A); experiment: ITC, XIP binding on ComR F171A/Y174A; parameters: species or system Streptococcus thermophilus LMD-9
Experimental: as §1, §2

[7] = molecular target: ComR K87A/K246A (Streptococcus thermophilus, UniProt A0A1L1QK15, K246A/K87A); experiment: ITC, XIP binding on ComR K87A/K246A; parameters: species or system Streptococcus thermophilus LMD-9
Experimental: as §1, §2

[8] = molecular target: ComR K87A/K246A (Streptococcus thermophilus, UniProt A0A1L1QK15, K87A/K246A); experiment: ITC, XIP binding on ComR K87A/K246A; parameters: species or system Streptococcus thermophilus LMD-9; conditions: ITC, ComR K87A/K246A
Experimental: as §1, §2

[9] = compared with heptapeptide 18–24; ref [30]; cited from earlier work
Experimental: The corresponding synthetic XIP peptide […] as well as the variants used in the functional analysis were supplied by GenScript or Peptide 2.0 (Chantilly, VA) and resuspended at a concentration of 50 mM in 50% DMSO / 50% protein stora ...

[10] = molecular target: T1, ComR WT (Streptococcus thermophilus LMD-9, UniProt PDB:5JUB_1 1-310); experiment: EMSA; XIP 0.2-1.2 uM; ComR 4 uM; EMSA: 20 mM Tris-HCl pH 8.0, 150 mM NaCl, 1 mM EDTA, 10% glycerol, 1 mg/ml BSA, 37 C 10 min, 40 ng DNA in 20 ul; crystal: 30% PEG 550 MME, 0.1 M MgCl2, 0.05 M Tris-HCl pH 8.5, 18 C; conditions: protein: recombinant; tags: C-terminal StreptagII; chain copies: 2; label: Cy3 (Methods: Alexa 555), direct strand; blunt
T1 sequence: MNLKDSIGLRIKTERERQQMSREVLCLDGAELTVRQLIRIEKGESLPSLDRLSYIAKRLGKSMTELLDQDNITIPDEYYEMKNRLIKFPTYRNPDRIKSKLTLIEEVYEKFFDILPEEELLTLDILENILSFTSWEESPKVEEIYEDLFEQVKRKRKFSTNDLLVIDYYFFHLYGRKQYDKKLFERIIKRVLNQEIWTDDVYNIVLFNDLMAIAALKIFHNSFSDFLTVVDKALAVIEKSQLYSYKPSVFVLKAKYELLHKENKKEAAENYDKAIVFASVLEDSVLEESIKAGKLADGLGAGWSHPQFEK

[11] = molecular target: T2, ComR K87A/K246A (Streptococcus thermophilus LMD-9, UniProt PDB:5JUB_1 1-310, K87A;K246A); experiment: EMSA; XIP up to 1.2 uM; ComR 4 uM; EMSA: 20 mM Tris-HCl pH 8.0, 150 mM NaCl, 1 mM EDTA, 10% glycerol, 1 mg/ml BSA, 37 C 10 min, 40 ng DNA in 20 ul; crystal: 30% PEG 550 MME, 0.1 M MgCl2, 0.05 M Tris-HCl pH 8.5, 18 C; conditions: protein: recombinant; tags: C-terminal StreptagII; chain copies: 2; label: Cy3 (Methods: Alexa 555), direct strand; blunt
T2 sequence: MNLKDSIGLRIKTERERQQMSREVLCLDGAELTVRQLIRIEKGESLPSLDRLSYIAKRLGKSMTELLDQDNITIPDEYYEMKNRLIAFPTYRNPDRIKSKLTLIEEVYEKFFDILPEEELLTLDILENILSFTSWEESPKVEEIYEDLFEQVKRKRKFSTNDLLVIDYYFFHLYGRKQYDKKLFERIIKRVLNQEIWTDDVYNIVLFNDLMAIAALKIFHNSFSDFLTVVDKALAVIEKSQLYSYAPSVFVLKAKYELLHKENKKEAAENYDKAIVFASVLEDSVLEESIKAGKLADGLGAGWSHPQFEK

[12] = molecular target: T3, ComR E146A/D147A (Streptococcus thermophilus LMD-9, UniProt PDB:5JUB_1 1-310, E146A;D147A); experiment: EMSA; no XIP; ComR 4 uM; strong, multimeric complexes; EMSA: 20 mM Tris-HCl pH 8.0, 150 mM NaCl, 1 mM EDTA, 10% glycerol, 1 mg/ml BSA, 37 C 10 min, 40 ng DNA in 20 ul; crystal: 30% PEG 550 MME, 0.1 M MgCl2, 0.05 M Tris-HCl pH 8.5, 18 C; conditions: protein: recombinant; tags: C-terminal StreptagII; chain copies: 2; label: Cy3 (Methods: Alexa 555), direct strand; blunt
T3 sequence: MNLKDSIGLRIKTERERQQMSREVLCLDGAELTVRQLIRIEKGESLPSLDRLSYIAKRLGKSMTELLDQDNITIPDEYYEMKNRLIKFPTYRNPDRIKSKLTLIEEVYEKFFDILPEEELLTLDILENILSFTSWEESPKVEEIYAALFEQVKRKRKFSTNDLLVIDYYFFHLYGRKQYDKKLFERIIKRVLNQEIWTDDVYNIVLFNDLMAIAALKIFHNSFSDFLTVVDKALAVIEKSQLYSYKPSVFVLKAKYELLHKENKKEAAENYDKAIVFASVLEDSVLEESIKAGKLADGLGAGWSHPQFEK

Chain of ComR Y91A (A0A1L1QK15 entry or part of it Y91A): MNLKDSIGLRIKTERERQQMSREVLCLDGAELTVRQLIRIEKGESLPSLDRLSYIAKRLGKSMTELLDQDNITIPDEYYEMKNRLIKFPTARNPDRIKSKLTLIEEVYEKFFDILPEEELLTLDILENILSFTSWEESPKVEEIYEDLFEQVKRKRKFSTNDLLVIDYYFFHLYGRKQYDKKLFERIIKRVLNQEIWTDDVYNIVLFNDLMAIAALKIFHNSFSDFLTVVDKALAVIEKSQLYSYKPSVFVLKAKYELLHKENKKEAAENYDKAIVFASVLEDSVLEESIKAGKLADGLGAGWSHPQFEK
Chain of ComR R92A (A0A1L1QK15 entry or part of it R92A): as the sequence (A0A1L1QK15 entry or part of it Y91A) above, with A91Y, R92A counted along it
Chain of ComR T90A (A0A1L1QK15 entry or part of it T90A): as the sequence (A0A1L1QK15 entry or part of it Y91A) above, with T90A, A91Y counted along it
Chain of ComR K100A (A0A1L1QK15 entry or part of it K100A): as the sequence (A0A1L1QK15 entry or part of it Y91A) above, with A91Y, K100A counted along it
Chain of ComR F171A/Y174A (A0A1L1QK15 entry or part of it F171A/Y174A): as the sequence (A0A1L1QK15 entry or part of it Y91A) above, with A91Y, F171A, Y174A counted along it

Q: With `CC(C)C[C@H](NC(=O)[C@H](CS)NC(=O)CNC(=O)[C@H](C)NC(=O)[C@H](Cc1ccccc1)NC(=O)[C@H](Cc1ccc(O)cc1)NC(=O)[C@@H]1CCCN1C(=O)[C@@H](N)CC(C)C)C(=O)O` [XIP] (H-LPYFAGCL-OH) as the molecule, how does the Kd [1] read?
A: 10 nM and 8 nM

Q: What about the Kd [2] of the same molecule?
A: 1170 ± 245 nM

Q: What about the Kd [3] of the same molecule?
A: 244 ± 108 nM

Q: And the Kd [4]?
A: 141 ± 33 nM

Q: And the “KD value in words” value ([4]; ITC, ComR Y91A)?
A: same order of magnitude than observed with T90A mutant

Q: What about the Kd [5] of the same molecule?
A: 277 ± 23 nM

Q: What about the affinity in words ([5]; ITC, ComR R92A) of the same molecule?
A: decreased affinity for XIP

Q: And the Kd [6]?
A: 87 ± 9 nM

Q: What about the Kd [7] of the same molecule?
A: 9 ± 3 nM

Q: What about the affinity in words [8] of the same molecule?
A: did not affect the affinity of ComR for the XIP peptide

Q: And the stability [9]?
A: more stable

B1: Cy3-boxPster_1655 wt (40 bp) (dsDNA)
DNA 1: CAAAATCGAGTAGTGACATTTATGTCACTACTTTTTTGTT
DNA 2: AACAAAAAAGTAGTGACATAAATGTCACTACTCGATTTTG
Q: Which results are given for B1?
A: binding result [10]: binds; binding result [11]: no binding; binding result [12]: binds

Source: PMC5131891, “Structural Insights into Streptococcal Competence Regulation by the Cell-to-Cell Communication System ComRS” (PLoS Pathogens, 2016)
